Assay results: ChEMBL document CHEMBL5137044, “Expansion of the S-CN-DABO scaffold to exploit the impact on inhibitory activities against the non-nucleoside HIV-1 reverse transcriptase” (Eur J Med Chem, 2022)

What was measured:
[1] = tested on: Human immunodeficiency virus 1; assay: Antiviral activity against drug-resistant HIV-1 L100I mutant infected in human MT4 cells assessed as reduction in virus-induced cytopathic effect incubated for 5 days by MTT assay; assay type: functional, organism-based; conditions: Human immunodeficiency virus 1, L100I mutant, MT4, 120 h
[2] = Fold resistance, ratio of EC50 for antiviral activity against drug-resistant HIV-1 Y188L mutant infected in human MT4 cells to EC50 for antiviral activity against […] HIV-1 infected in human MT4 cells; assay type: functional
[3] = Cytotoxicity against human MT4 cells assessed as cell growth inhibition incubated for 5 days by MTT assay; assay type: toxicity, cell-based; conditions: time 5 day
[4] = Fold resistance, ratio of EC50 for antiviral activity against drug-resistant HIV-1 E138K mutant infected in human MT4 cells to EC50 for antiviral activity against […] HIV-1 infected in human MT4 cells; assay type: functional
[5] = tested on: Human immunodeficiency virus 1; assay: Antiviral activity against drug-resistant HIV-1 Y181C mutant infected in human MT4 cells assessed as reduction in virus-induced cytopathic effect incubated for 5 days by MTT assay; assay type: functional, organism-based; conditions: Human immunodeficiency virus 1, Y181C mutant, MT4, 120 h
[6] = Selectivity index, ratio of CC50 for human MT4 cells to EC50 for antiviral activity against NNRTI resistant HIV-1 infected in human MT4 cells; assay type: toxicity, cell-based; conditions: read-out: Ratio CC50/EC50
[7] = Fold resistance, ratio of EC50 for antiviral activity against drug-resistant HIV-1 Y181C mutant infected in human MT4 cells to EC50 for antiviral activity against […] HIV-1 infected in human MT4 cells; assay type: functional
[8] = Fold resistance, ratio of EC50 for antiviral activity against drug-resistant HIV-1 L100I mutant infected in human MT4 cells to EC50 for antiviral activity against […] HIV-1 infected in human MT4 cells; assay type: functional
[9] = tested on: Human immunodeficiency virus 1; assay: Antiviral activity against drug-resistant HIV-1 E138K mutant infected in human MT4 cells assessed as reduction in virus-induced cytopathic effect incubated for 5 days by MTT assay; assay type: functional, organism-based; conditions: Human immunodeficiency virus 1, E138K mutant, MT4, 120 h
[10] = Fold resistance, ratio of EC50 for antiviral activity against drug-resistant HIV-1 K103 N mutant infected in human MT4 cells to EC50 for antiviral activity against […] HIV-1 infected in human MT4 cells; assay type: functional
[11] = tested on: Human immunodeficiency virus 1; assay: Antiviral activity against drug-resistant HIV-1 K103 N mutant infected in human MT4 cells assessed as reduction in virus-induced cytopathic effect incubated for 5 days by MTT assay; assay type: functional, organism-based; conditions: Human immunodeficiency virus 1, K103 N mutant, MT4, 120 h
[12] = target: Human immunodeficiency virus type 1 reverse transcriptase (Human immunodeficiency virus 1, UniProt Q72547); assay: Inhibition of recombinant wild-type p66/p51 HIV-1 reverse transcriptase incubated for 40 mins by picogreen dye-based spectrofluorometric analysis
[13] = tested on: Human immunodeficiency virus 1; assay: Antiviral activity against drug-resistant HIV-1 Y188L mutant infected in human MT4 cells assessed as reduction in virus-induced cytopathic effect incubated for 5 days by MTT assay; assay type: functional, organism-based; conditions: Human immunodeficiency virus 1, Y188L mutant, MT4, 120 h
[14] = tested on: Human immunodeficiency virus 1; assay: Antiviral activity against […] HIV-1 infected in human MT4 cells assessed as reduction in virus-induced cytopathic effect incubated for 5 days by MTT assay; assay type: functional, organism-based; conditions: Human immunodeficiency virus 1, MT4, 120 h

SMILES	EC50 [1] [µM]	Ratio EC50 [2]	CC50 at 120 h [3] [µM]	Ratio EC50 [4]	EC50 [5] [µM]	selectivity ratio [6]	Ratio EC50 [7]	Ratio EC50 [8]	EC50 [9] [µM]	Ratio EC50 [10]	EC50 [11] [µM]	IC50 [12] [µM]	EC50 [13] [µM]	EC50 [14] [µM]
Cc1c(C(C#N)c2ccc(F)c(C#N)c2)nc(SC(C)C)[nH]c1=O (stereo unspecified)	57	>8	164	2	> 164	8	>8	3	41.9	>8	> 164	83.8	> 164	21.4
Cc1c(C(C#N)c2ccc(C(F)(F)F)cc2)nc(SC(C)C)[nH]c1=O (stereo unspecified)	> 39.8	>8	39.8	2	> 39.8	8	>8	>8	9.11	>8	> 39.8	13.3	> 39.8	5.3
Cc1c(C(C#N)c2ccc(Br)cc2)nc(SC(C)C)[nH]c1=O (stereo unspecified)	> 10.3	>70	47.1	>2	> 47.1	71	>70	>15	1.25	>70	> 47.1	1.78	> 47.1	0.67
Cc1c(C(C#N)c2cccc(F)c2)nc(SC(C)C)[nH]c1=O (stereo unspecified)	13.5	>753	202	4	6.89	754	26	50	0.96	245	65.6	0.829	> 202	0.268
Cc1c(C(C#N)c2cccc3c2OCO3)nc(SC(C)C)[nH]c1=O (stereo unspecified)	10	>214	96.5	4	50.7	213	113	22	1.94	>214	> 96.5	1.35	> 96.5	0.45
Cc1c(C(C#N)c2ccc(Cl)cc2)nc(SC(C)C)[nH]c1=O (stereo unspecified)	> 14.4	>56	70.2	3	> 70.2	56	>56	>11	4.19	>56	> 70.2	3.37	> 70.2	1.26
COc1cccc(C(C#N)c2nc(SC(C)C)[nH]c(=O)c2C)c1 (stereo unspecified)	2.78	450	176	3	5.82	1280	42	20	0.36	205	28.2	1.06	62	0.138
Cc1c(C(C#N)c2cccc(Cl)c2)nc(SC(C)C)[nH]c1=O (stereo unspecified)	11.2	>199	172	2	7.27	493	21	32	0.87	144	50.3	0.713	> 69.7	0.35
Cc1c(C(C#N)c2ccccc2Br)nc(SC(C)C)[nH]c1=O (stereo unspecified)	2	469	77.6	2	5.28	676	46	17	0.2	246	28.2	0.198	54	0.115
Cc1c(C(C#N)c2ccccc2)nc(SC(C)C)[nH]c1=O (stereo unspecified)	10.3	>550	204	2	9.21	547	25	28	0.87	185	68.3	1.51	> 204	0.37
Cc1c(C(C#N)c2c(Cl)cccc2Cl)nc(SC(C)C)[nH]c1=O (stereo unspecified)	3.38	>750	62.2	3	3.99	749	48	41	0.22	>74	6.13	0.466	> 62.2	0.083
Cc1c(C(C#N)c2cccc(C(F)(F)F)c2)nc(SC(C)C)[nH]c1=O (stereo unspecified)	12.1	>65	69.2	3	9.98	65	9	11	2.71	>57	> 60.4	2.71	> 69.2	1.06
COc1cc(OC)cc(C(C#N)c2nc(SC(C)C)[nH]c(=O)c2C)c1 (stereo unspecified)	3.36	>61	41.1	4	> 41.1	61	>61	5	2.54	>61	> 41.1	2.58	> 41.1	0.67
Cc1c(C(C#N)c2cc(F)cc(Cl)c2)nc(SC(C)C)[nH]c1=O (stereo unspecified)	19.1	>365	139	5	12.5	363	33	50	1.99	124	47.2	0.716	> 139	0.38
Cc1cc(C)cc(C(C#N)c2nc(SC(C)C)[nH]c(=O)c2C)c1 (stereo unspecified)	2.29	702	220	6	4.11	2770	52	29	0.45	115	9.05	0.226	55.5	0.079
Cc1ccccc1C(C#N)c1nc(SC(C)C)[nH]c(=O)c1C (stereo unspecified)	3.23	546	111	2	5.52	960	48	28	0.26	416	48.2	0.68	63.4	0.116
Cc1c(C(C#N)c2ccc(Cl)nc2)nc(SC(C)C)[nH]c1=O (stereo unspecified)	32.3	>10	216	1	41.3	10	2	2	28.6	2	41.3	203	> 216	20.6
Cc1c(C(C#N)c2cccc(Br)c2)nc(SC(C)C)[nH]c1=O (stereo unspecified)	7.37	>445	125	3	6.43	443	23	26	0.71	>170	47.6	0.57	> 125	0.28
Cc1c(C(C#N)c2cc(F)cc(F)c2)nc(SC(C)C)[nH]c1=O (stereo unspecified)	18.5	>396	202	4	8.7	394	17	36	1.91	101	51.5	1.29	> 202	0.51
